Test results taken from ChEMBL document CHEMBL1201862, “PubChem BioAssay data set” (2004).
Activity calls are given as the source filed them.

Key:
Kallikrein-7 = Kallikrein-7 (Homo sapiens, UniProt P49862); assay: Fluorescence Intensity-based biochemical primary high throughput dose response assay to identify activators of kallikrein-7 (K7) zymogen.
[1] = biological target: T1, Long-chain-fatty-acid--AMP ligase FadD28 (Mycobacterium tuberculosis, UniProt P9WQ59); assay: Fluorescence polarization aasay to screen for inhibitors that compete for the binding of FadD28 to a bisubstrate Measured in Biochemical System Using Plate Reader - 2147-01_Inhibitor_Dose_CherryPick_Activity.; type: functional, Mycobacterium tuberculosis H37Rv
T1 sequence (P9WQ59 whole entry): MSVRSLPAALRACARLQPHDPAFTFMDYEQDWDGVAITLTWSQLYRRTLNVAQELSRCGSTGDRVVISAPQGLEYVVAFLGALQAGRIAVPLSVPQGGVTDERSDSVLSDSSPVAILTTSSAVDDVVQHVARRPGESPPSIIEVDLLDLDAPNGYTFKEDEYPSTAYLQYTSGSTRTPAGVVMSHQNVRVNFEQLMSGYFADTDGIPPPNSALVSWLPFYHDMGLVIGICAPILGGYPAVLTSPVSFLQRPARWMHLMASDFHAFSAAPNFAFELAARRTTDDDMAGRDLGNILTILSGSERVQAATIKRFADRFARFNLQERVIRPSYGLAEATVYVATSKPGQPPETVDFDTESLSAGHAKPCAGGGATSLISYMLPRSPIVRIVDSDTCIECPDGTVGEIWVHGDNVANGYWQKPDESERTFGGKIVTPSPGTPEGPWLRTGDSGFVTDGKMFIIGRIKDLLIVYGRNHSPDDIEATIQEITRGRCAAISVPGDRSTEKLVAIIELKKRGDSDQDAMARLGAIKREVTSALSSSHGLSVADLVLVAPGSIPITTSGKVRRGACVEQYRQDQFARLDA

[2] = biological target: Voltage-dependent T-type calcium channel subunit alpha-1H (Homo sapiens, UniProt O95180); type: functional;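 note: channel activity triggered by adding a high calcium stimulation buffer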
Chain of Voltage-dependent T-type calcium channel subunit alpha-1H (O95180 whole entry, the tested form may be a part): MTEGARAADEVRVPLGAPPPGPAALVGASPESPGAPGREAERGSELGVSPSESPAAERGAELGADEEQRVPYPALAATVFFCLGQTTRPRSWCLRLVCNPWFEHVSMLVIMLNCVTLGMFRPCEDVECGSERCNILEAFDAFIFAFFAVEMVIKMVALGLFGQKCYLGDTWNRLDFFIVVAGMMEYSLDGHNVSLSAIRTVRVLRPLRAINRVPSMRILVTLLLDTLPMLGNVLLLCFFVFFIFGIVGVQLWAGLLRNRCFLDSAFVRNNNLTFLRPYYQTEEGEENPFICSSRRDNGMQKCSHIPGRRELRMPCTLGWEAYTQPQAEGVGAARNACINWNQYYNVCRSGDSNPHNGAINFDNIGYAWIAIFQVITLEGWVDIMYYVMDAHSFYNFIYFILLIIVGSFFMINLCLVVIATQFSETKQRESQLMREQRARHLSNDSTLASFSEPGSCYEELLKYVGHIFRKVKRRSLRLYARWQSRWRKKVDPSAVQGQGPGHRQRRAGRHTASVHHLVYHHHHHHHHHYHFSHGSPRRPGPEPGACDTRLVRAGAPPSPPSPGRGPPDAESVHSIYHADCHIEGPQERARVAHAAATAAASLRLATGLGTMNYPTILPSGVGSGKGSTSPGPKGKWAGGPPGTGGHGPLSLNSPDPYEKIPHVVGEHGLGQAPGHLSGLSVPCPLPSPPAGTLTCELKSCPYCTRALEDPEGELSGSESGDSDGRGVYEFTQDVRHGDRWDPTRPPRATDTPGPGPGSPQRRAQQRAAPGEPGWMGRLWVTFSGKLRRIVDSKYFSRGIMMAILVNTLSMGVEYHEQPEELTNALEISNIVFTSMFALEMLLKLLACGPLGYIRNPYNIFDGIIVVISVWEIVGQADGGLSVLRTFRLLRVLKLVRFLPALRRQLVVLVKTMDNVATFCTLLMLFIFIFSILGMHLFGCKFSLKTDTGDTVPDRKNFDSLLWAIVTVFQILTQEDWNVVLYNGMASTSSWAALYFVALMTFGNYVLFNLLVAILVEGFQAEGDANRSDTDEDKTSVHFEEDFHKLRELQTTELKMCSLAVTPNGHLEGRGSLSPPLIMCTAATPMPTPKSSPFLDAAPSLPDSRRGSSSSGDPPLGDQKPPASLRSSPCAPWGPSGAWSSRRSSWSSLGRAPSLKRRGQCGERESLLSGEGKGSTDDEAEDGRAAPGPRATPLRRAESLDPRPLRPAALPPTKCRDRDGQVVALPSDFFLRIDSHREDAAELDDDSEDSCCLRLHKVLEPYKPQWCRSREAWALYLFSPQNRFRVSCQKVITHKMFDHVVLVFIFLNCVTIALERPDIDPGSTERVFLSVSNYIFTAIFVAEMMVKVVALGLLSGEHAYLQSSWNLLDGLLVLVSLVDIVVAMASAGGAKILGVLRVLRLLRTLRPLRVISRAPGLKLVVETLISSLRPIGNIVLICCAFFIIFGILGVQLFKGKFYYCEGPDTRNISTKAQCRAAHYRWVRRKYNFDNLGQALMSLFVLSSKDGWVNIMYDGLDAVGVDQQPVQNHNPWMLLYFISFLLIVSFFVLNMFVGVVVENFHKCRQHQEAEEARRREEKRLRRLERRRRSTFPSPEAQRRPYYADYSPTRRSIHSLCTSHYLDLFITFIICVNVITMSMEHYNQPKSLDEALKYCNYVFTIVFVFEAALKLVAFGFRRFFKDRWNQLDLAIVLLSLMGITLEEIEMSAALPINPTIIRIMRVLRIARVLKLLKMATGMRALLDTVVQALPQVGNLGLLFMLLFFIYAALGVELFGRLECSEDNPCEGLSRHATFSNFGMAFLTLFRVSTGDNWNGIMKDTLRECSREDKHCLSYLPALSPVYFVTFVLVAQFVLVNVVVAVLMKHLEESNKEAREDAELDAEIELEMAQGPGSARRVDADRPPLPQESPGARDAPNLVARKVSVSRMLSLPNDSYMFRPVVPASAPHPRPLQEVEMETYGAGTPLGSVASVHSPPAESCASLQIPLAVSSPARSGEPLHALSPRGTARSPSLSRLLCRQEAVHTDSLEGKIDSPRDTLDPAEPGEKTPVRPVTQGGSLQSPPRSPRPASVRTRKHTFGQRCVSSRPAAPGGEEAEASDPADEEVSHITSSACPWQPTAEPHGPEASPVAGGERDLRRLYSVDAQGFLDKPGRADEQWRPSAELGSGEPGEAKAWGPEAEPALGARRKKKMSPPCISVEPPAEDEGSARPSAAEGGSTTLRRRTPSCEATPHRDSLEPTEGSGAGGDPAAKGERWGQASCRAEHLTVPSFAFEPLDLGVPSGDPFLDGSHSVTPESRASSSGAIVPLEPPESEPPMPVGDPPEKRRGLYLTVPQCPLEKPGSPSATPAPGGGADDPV

[3] = off-target signal loss in HeLa-CEM21 co-culture – HeLa F-luc CTL cells, cherry-picked, counter-screen for HIV-1 Env fusion inhibitor project, dose response (AID 652040); type: functional, cell-based;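 note: potency for signal decrease marking cytotoxic or nonspecific inhibition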
[4] = inhibitors of HIV Env-driven cell fusion, dose response, cherry-pick (AID 652057); type: functional, cell-based
[5] = inhibitors of clade B AD8 Env fusion, dose response, cell-based, cherry-pick (AID 652062); type: functional;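 note: luciferase signal from cell-cell fusion driven by HIV-1 clade B AD8 Env; potency is for inhibitors of fusion seen as a drop in luminescence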
[6] = HEK293 Cytotoxicity Assay Measured in Cell-Based System Using Plate Reader - 7071-01_Inhibitor_Dose_CherryPick_Activity_Set2.; type: functional
HEK293 = assay: HEK293T cell cytotoxicity, dose response, cytotoxicity control, ATP luminescence, cherry-pick samples (AID 687005); type: functional, cell-based; conditions: Homo sapiens;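 note: cells exposed to compound for 48 hours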

Chain of Kallikrein-7 (P49862 whole entry): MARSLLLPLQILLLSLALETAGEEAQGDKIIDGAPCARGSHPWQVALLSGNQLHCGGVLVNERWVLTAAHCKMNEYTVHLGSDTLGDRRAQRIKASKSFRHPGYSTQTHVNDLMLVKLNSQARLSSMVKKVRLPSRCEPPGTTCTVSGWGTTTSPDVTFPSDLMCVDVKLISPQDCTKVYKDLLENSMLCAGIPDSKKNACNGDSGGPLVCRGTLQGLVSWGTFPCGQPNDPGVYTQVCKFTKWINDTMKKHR

Structure (SMILES) | EC50 (Kallikrein-7) | AC50 [6] | AC50 (HEK293) | further results
COc1ccc(OC)c(/C=C/C(=O)OCC(=O)NCc2ccco2)c1 | > 69.5 µM (inactive) | – | – | –
Cc1ccc(-c2cn3cccnc3n2)cc1NC(=O)c1ccc(Br)o1 | > 69.5 µM (inactive) | – | – | –
Cc1ccc(CSCCNC(=O)c2ccc(Cl)c(S(=O)(=O)N3CCOCC3)c2)cc1 | – | – | – | AC50 [1]: 5.54 µM (active); EC50 [2]: 4.41 µM (active); AC50 [3]: 54.5 µM (active); AC50 [4]: 25.3 µM (active); AC50 [5]: 7.44 µM (active)
Cc1coc2c1c(C)cc1oc(=O)c(CC(=O)NCCCCCC(=O)O)c(C)c12 | > 69.5 µM (inactive) | – | – | –
COC(=O)C1=C(C)N(Cc2ccccc2)C(=O)N[C@H]1c1cccc(F)c1 | – | 24.6 µM (active) | 24.6 µM (active) | –
C[C@@H]1CN([C@H](C)CO)S(=O)(=O)c2ccc(C#Cc3ccccn3)cc2O[C@H]1CN(C)Cc1ccccc1 | – | 5.16 µM (active) | 5.16 µM (active) | –
